Experimental data from ChEMBL document CHEMBL5543140 (J Med Chem, 2024).
Activity calls are given as the source filed them. The calls are words filed in the database; no cut-off is given here.

What was measured:
[1] = molecular target: 5-hydroxytryptamine receptor 2B (Homo sapiens, UniProt P41595); assay: Displacement of [3H]LSD from human 5-HT2B receptor expressed in HEK293 cell membrane incubated for 90 mins by microbeta liquid scintillation counting method; format: cell membranes
[2] = molecular target: T1, 5-hydroxytryptamine receptor 2C (Homo sapiens, UniProt P28335); assay: Binding affinity to human [125I]LSD-labeled 5-HT2C receptor expressed in HEK293 cell membrane incubated for 60 mins; format: cell membranes
T1 sequence (P28335 whole entry): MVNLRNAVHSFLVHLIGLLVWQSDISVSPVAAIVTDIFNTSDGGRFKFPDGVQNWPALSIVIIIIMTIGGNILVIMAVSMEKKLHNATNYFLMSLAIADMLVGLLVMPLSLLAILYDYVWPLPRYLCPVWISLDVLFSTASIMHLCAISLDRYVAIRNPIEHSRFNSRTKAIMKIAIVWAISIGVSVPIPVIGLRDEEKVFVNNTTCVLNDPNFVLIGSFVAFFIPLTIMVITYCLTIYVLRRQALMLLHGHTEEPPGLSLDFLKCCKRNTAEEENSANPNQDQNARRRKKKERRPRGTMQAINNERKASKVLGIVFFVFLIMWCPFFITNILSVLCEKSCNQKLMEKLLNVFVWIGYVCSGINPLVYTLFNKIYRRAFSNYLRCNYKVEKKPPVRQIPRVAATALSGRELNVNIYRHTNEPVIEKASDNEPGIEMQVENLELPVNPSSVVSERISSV

[3] = molecular target: 5-hydroxytryptamine receptor 1B (Homo sapiens, UniProt P28222); assay: Displacement of [3H]GR125743 from 5-HT1B receptor (unknown origin) assessed as inhibition binding at 10 uM relative to control
Chain of 5-hydroxytryptamine receptor 1B (P28222 whole entry): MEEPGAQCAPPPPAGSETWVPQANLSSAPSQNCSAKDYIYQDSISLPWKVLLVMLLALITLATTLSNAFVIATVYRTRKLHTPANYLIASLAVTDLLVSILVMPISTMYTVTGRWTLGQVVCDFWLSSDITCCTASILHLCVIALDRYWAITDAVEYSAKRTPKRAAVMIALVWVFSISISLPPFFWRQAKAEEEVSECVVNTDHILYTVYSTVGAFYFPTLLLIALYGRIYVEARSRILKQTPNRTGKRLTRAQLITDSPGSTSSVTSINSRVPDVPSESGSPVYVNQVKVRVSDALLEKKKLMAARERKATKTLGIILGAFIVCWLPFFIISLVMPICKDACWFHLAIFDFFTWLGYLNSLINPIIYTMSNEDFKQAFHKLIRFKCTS

[4] = molecular target: T2, 5-hydroxytryptamine receptor 1A (Homo sapiens) (UniProt P08908); assay: Agonist activity at human 5-HT1A receptor expressed in HEK293T cells co-transfected with 22F-Glosensor assessed as inhibition of cAMP production measured after 30 mins incubation by Microbeta2Micro-plate counter analysis; format: functional, cell-based; settings: filed as agonist
T2 sequence (whole entry): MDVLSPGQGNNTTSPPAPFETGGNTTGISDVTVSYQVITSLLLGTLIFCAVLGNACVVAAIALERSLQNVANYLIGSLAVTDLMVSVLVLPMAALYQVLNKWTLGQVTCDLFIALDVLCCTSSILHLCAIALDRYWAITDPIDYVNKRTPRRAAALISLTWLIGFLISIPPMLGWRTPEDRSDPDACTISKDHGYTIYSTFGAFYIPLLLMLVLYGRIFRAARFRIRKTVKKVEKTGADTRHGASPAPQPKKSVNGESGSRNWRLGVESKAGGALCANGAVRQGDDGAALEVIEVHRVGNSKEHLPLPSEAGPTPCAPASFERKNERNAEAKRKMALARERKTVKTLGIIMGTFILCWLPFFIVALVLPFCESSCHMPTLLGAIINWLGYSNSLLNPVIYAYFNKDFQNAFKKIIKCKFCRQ

Mus musculus [5] = assay: Psychedelic effect in C57BL/6J mouse assessed as induction of 5-HT2A receptor dependent maximal head-twitch responses by visual observation at 1 mg/kg, sc at 100 mins; format: functional, organism-based
Mus musculus [6] = assay: Psychedelic effect in C57BL/6J mouse assessed as induction of 5-HT2A receptor dependent head-twitch responses by visual observation at 3 mg/kg, sc in presence of ketanserin 1 mg/kg, sc measured after 24 hrs; format: functional, organism-based
Mus musculus [7] = assay: Psychedelic effect in C57BL/6J mouse assessed as number of 5-HT2A receptor dependent head-twitch responses by visual observation at 3 mg/kg, sc measured after 24 hrs; format: functional
[8] = Ex vivo binding in C57BL/6J mouse brain frontal cortex assessed as specific binding [3H]Cimbi-36 at 1 mg/kg, sc measured after 15 mins by liquid scintillation counting analysis (reference value: 1092 +/- 53); format: functional; settings: 0.25 h
[9] = Ex vivo binding in C57BL/6J mouse brain frontal cortex assessed as specific binding [3H]Cimbi-36 at 1 mg/kg, sc measured after 300 mins by liquid scintillation counting analysis (reference value: 1092 +/- 53); format: functional; settings: 5 h
[10] = Ex vivo binding in C57BL/6J mouse brain frontal cortex assessed as inhibition of [3H]Cimbi-36 binding at 1 mg/kg, sc measured after 40 mins by liquid scintillation counting analysis (reference value: 0%); format: functional
Hippocampus [11] = assay: Induction of neuroplasticity in C57BL/6J mouse assessed as increase in BDNF mRNA expression in brain hippocampus at 3 mg/kg, sc single dose by RT-PCR analysis; format: functional, organism-based
Hippocampus [12] = assay: Induction of neuroplasticity in C57BL/6J mouse assessed as increase in SYN1 mRNA expression in brain hippocampus at 3 mg/kg, sc single dose by RT-PCR analysis; format: functional, organism-based
Hippocampus [13] = assay: Induction of neuroplasticity in C57BL/6J mouse assessed as increase in NPTN mRNA expression in brain hippocampus at 3 mg/kg, sc single dose by RT-PCR analysis; format: functional, organism-based
Mus musculus [14] = assay: Induction of neuroplasticity in C57BL/6J mouse assessed as increase in EGR2 mRNA expression in brain frontal cortex at 0.3 mg/kg, sc single dose by RT-PCR analysis; format: functional, organism-based
Hippocampus [15] = assay: Induction of neuroplasticity in C57BL/6J mouse assessed as increase in Homer1 mRNA expression in brain hippocampus at 0.3 mg/kg, sc single dose by RT-PCR analysis; format: functional, organism-based
[16] = Metabolic stability in dog liver microsomes assessed as half life at 1 uM incubated for 120 mins in presence of NADPH; format: ADME, Canis lupus familiaris, Microsome
[17] = Drug metabolism in human hepatocytes at 10 uM by HRAMS analysis; format: ADME, cell-based, Hepatocyte
[18] = Volume of distribution in Wistar rat plasma at 1 mg/kg, iv measured upto 48 hrs; format: ADME, organism-based
[19] = Cmax in Wistar rat plasma at 5 mg/kg, po measured upto 48 hrs; format: ADME, organism-based
[20] = Brain to plasma ratio in Wistar rat at 1 mg/kg, iv measured upto 48 hrs; format: ADME, organism-based; settings: read-out: BPR
[21] = AUClast in Wistar rat brain at 5 mg/kg, po measured upto 48 hrs; format: ADME, organism-based
[22] = Cmax in male Sprague-Dawley rat plasma at 1 mg/kg, iv measured upto 8 hrs by LC-MS/MS analysis; format: ADME, organism-based
[23] = AUClast in male Sprague-Dawley rat brain at 1 mg/kg, iv measured upto 8 hrs by LC-MS/MS analysis; format: ADME, organism-based
[24] = AUCinf in male Sprague-Dawley rat brain at 1 mg/kg, iv measured upto 8 hrs by LC-MS/MS analysis; format: ADME, organism-based
[25] = AUClast in male Sprague-Dawley rat CSF at 1 mg/kg, iv measured upto 8 hrs by LC-MS/MS analysis; format: ADME, organism-based, Cerebrospinal fluid
[26] = CSF to brain ratio in male Sprague-Dawley rat at 1 mg/kg, iv measured upto 8 hrs by LC-MS/MS analysis; format: ADME, organism-based; settings: in vivo
[27] = Volume of distribution at steady state in beagle dog at 0.4 mg/kg, iv measured upto 24 hrs; format: ADME, organism-based, Canis lupus familiaris; settings: in vivo, read-out: Vdss
[28] = Renal clearance in beagle dog at 0.4 mg/kg, iv measured upto 24 hrs; format: ADME, organism-based, Canis lupus familiaris; settings: in vivo

Chain of 5-hydroxytryptamine receptor 2B (P41595 whole entry): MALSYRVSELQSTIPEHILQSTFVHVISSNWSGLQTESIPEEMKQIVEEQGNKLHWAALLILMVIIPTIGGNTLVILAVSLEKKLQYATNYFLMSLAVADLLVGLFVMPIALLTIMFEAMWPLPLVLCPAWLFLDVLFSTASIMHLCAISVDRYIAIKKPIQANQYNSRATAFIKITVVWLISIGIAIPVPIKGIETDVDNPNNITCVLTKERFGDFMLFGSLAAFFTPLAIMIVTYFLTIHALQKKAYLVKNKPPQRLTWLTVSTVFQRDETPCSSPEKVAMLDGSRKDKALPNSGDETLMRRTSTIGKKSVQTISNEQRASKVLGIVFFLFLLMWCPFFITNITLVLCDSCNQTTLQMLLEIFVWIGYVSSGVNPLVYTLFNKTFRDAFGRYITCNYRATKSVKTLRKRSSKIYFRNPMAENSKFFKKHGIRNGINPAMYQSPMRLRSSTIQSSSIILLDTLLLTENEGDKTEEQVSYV

COc1cc([Se]C(F)(F)F)c(OC)cc1CCN.Cl
Ki [1]: 14 nM | Ki [2]: 6.7 nM | inhibition [3]: 83% | Emax [4]: 95% | Activity (Mus musculus [5]): Active | Activity (Mus musculus [6]): inactive | Activity (Mus musculus [7]): 25 | Activity [8]: 971 | Activity [9]: 857 | inhibition in vivo at 1 mg/kg [10]: 33% | Activity (Hippocampus [11]): inactive | Activity (Hippocampus [12]): inactive | Activity (Hippocampus [13]): inactive | Activity (Mus musculus [14]): Active | Activity (Hippocampus [15]): inactive | half-life at 1 µM [16]: > 2 h | Drug metabolism [17]: Metabolite_Notdetected | Vd [18]: 22.2 L/kg | Cmax [19]: 18.6 ng/mL | Kp at 48 h [20]: 64.3 | AUC(0-t) at 48 h [21]: 1860 ng·h/mL | Cmax [22]: 250 ng/mL | AUC(0-t) at 8 h [23]: 3220 ng·h/mL | AUC(0-inf) [24]: 3280 ng·h/mL | AUC(0-t) at 8 h [25]: 49.9 ng·h/mL | Ratio [26]: 0.016 | Vd [27]: 5.29 L/kg | CL renal at 24 h [28]: 0.6 mL/min/kg
